The text below walks through data of US7449473B2, “Substituted pyrrolo[3,2-d]pyrimidin-2,4-diones as A2b adenosine receptor antagonists” (CV Therapeutics, Inc., priority 2003, dated 2008).

The assay addresses T1, Human A2B adenosine receptor (Homo sapiens, UniProt P29275).
T1 construct: expressed in transfected cells; host or cells: HEK-293 (HEK-A2B), membrane preparation
T1 sequence (P29275 1-332): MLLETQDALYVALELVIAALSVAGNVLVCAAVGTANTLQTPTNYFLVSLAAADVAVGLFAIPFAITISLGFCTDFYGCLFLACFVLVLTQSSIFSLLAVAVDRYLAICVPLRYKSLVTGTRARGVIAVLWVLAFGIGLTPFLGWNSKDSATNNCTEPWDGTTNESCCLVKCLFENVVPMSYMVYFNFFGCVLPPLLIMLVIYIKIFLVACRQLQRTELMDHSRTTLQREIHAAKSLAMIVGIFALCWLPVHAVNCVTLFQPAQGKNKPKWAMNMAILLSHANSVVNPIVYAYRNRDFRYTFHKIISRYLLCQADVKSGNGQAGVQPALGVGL
Kind of assay: Radioligand binding for A2B adenosine receptor (3H-ZM241385 competition, HEK-A2B membranes). The following applies: competition with 10 nM 3H-ZM241385, HEK-A2B cell membranes. On the procedure:
Radioligand Binding for A2B Adenosine Receptor.
Human A2B adenosine receptor cDNA was stably transfected into HEK-293 cells (referred to as HEK-A2B cells). Monolayer of HEK-A2B cells were washed with PBS once and harvested in a buffer containing 10 mM HEPES (pH 7.4), 10 mM EDTA and protease inhibitors. These cells were homogenized in polytron for 1 minute at setting 4 and centrifuged at 29000 g for 15 minutes at 4° C. The cell pellets were washed once with a buffer containing 10 mM HEPES (pH7.4), 1 mM EDTA and protease inhibitors, and were resuspended in the same buffer supplemented with 10% sucrose. Frozen aliquots were kept at −80° C. Competition assays were started by mixing 10 nM ^3H-ZM241385 (Tocris Cookson) with various concentrations of test compounds and 50 μg membrane proteins in TE buffer (50 mM Tris and 1 mM EDTA) supplemented with 1 Unit/mL adenosine deaminase. The assays were incubated for 90 minutes, stopped by filtration using Packard Harvester and washed four times with ice-cold TM buffer (10 mM Tris, 1 mM MgCl2, pH 7.4). Non specific binding was determined in the presence of 10 μM ZM241385. The affinities of compounds (i.e. Ki values) were calculated using GraphPad software.

As a reminder, the Ki is a dissociation constant, usually derived from enzyme kinetics or from competition with a known ligand. Read a high Ki as a looser hold on the target. For `CCCn1c(=O)c2[nH]c(-c3cnn(Cc4ccccc4)c3)cc2n(CCC)c1=O` [6-[1-benzylpyrazol-4-yl]-1,3-dipropyl-1,3-dihydropyrrolo[3,2-d]pyrimidine-2,4-dione], the affinity, expressed as Ki, was 26 nM.
Compound `CCCn1c(=O)c2c(cc(-c3cnn(Cc4ccccc4)c3)n2O)n(CCC)c1=O` [8-(1-benzyl-1H-pyrazol-4-yl)-7-hydroxy-1,3-dipropyl-1H-pyrrolo[3,2-d]pyrimidine-2,6-dione] returned a Ki of 120 nM.
The result for `CCCn1c(=O)c2[nH]c(-c3cnn(Cc4cccc(F)c4)c3)cc2n(CCC)c1=O` [8-(1-(3-fluorobenzyl)-1H-pyrazol-4-yl)-1,3-dipropyl-1H-pyrrolo[3,2-d]pyrimidine-2,6-dione] reads 13 nM; that for `CCCn1c(=O)c2c(cc(-c3ccncc3)n2O)n(CCC)c1=O` [8-(pyridin-4-yl)-7-hydroxy-1,3-dipropyl-1H-pyrrolo[3,2-d]pyrimidine-2,6-dione], 12 nM; that for `CCCn1c(=O)c2[nH]c(-c3cc[n+]([O-])cc3)cc2n(CCC)c1=O` [8-(N-oxypyridin-4-yl)-1,3-dipropyl-1H-pyrrolo[3,2-d]pyrimidine-2,6-dione], 544 nM.
For `CCCn1c(=O)c2c(cc(-c3ccccn3)n2O)n(CCC)c1=O` [1,3-dipropyl-8-(pyridin-2-yl)-7-hydroxy-1H-pyrrolo[3,2-d]pyrimidine-2,6-dione], the Ki was found to be 129 nM.
For the compound `CCCn1c(=O)c2c(cc(-c3cnn(Cc4cccc(C(F)(F)F)c4)c3)n2O)n(CCC)c1=O` [8-(1-(3-(trifluoromethyl)benzyl)-1H-pyrazol-4-yl)-7-hydroxy-1,3-dipropyl-1H-pyrrolo[3,2-d]pyrimidine-2,6-dione], affinity was put at a Ki of 9 nM.
